Test results as given in patent publication US20040120954A1, “Regulation of mt1-mmp activity” (priority 2000, published 2004).

How the values were obtained:
[1] = test system: tyrosine residues in the cytoplasmic domain of NGFR; assay: Tyrosine phosphorylation of ectodomain/NGFR chimeras expressed in COS1 cells (homophilic complex formation); type: cell-based; settings: FIG. 9
Procedure: Cell lysate samples were subjected to separation on SDS-PAGE, followed by a transfer of the proteins in the gel to nitrocellulose membranes (Hybond-ECL, Amersham Pharmacia Biotech, Inc.). After blocking with a solution of 10% skim milk dissolved in TBS (20 mM Tris-HCl buffer, pH 7.5 containing 150 mM NaCl), the membrane was exposed to a monoclonal anti-FLAG M2 antibody (3 μg/ml) for detecting FLAG-tagged MT1-MMP and its mutants. In order to visualize the immunoreactive bands, the membrane was further exposed to an alkaline phosphatase-conjugated goat anti-mouse IgG antibody. For the purpose of detecting a phosphotyrosine residue in chimera proteins, a monoclonal anti-phosphotyrosine antibody, PY20 (1 μg/ml) was used.
By utilizing the above principle, a chimeric protein is first constructed consisting of the ectodomain of MT1-MMP and the transmembrane (TM) and cytoplasmic (CP) domains of NGFR (FIG. 8) in order to test for direct complex formation. When the ectodomain of this chimeric protein forms a homophilic complex in a similar manner, tyrosine residues in the cytoplasmic domain will be phosphorylated.
A FLAG-tagged MT1-MMP (MT1-F) expression construct as used herein was as described in Itoh, Y. et al., J. Biol. Chem. 274: 34260-34266, 1999. In addition, MT1-F was used as a template to generate cDNAs for MT1Cat-F (Δ Ile^318-Gly^535) and MT1PEX-F (ΔTyr^112-Pro^312) by the PCR extension method of Ho et al. (Ho, S. N. et al., Gene, 77: 51-59, 1989). The cDNA was subcloned into pSG5 (Stratagene, CA, USA). Chimera mutants of the ectodomain of MT1-F, MT1Cat-F, MT1PEX-F or MT4PEX-F, with the transmembrane (TM)/cytoplasmic (CP) domain of NGFR were also generated by the PCR method in a similar manner, and subcloned into pSG5. The MT1-MMP-derived sequence corresponded to Met^1 through Asp^515 of MT1-MMP, while the NGFR-derived sequence corresponded to Glu^384 through Gly^790 of NGFR (GenBank™ accession number M23102). The other chimera mutants were also composed from these corresponding sequences. All the PCR-generated fragments were confirmed by DNA sequencing.
Expression vectors for the protein were transfected into COS1 cells, using FuGENE6™ (Roche Molecular Biochemicals) according to the manufacturer's instructions. COS1 cells were seeded in 6-well plates at 1.5×10^5/well at 16 hrs before the transfection was performed. The COS1 cells were maintained in a HAM F-12 medium or DMEM containing 10% fetal bovine serum in a humidified incubator at 37° C. At 48 hrs after the transfection, the cells were collected for use in the experiments.
To monitor the dimer formation of the enzyme in the cells, another approach to detect the molecular interactions was executed. […]

MT1-MMP [2] = assay: Activation of proMMP-2 by MT1-MMP on the cell surface of transfected cells (gelatin zymography); type: cell-based, human; settings: transfected COS1 cells, exogenous purified proMMP-2 (FIGS. 2, 20)
Procedure: Gelatin zymography was conducted using an SDS-polyacrylamide gel (PAGE) containing gelatin (0.8 mg/ml) (Itoh, Y. et al., J. Biol. Chem., 273: 24360-24367, 1998). The samples were mixed with a SDS-PAGE loading buffer without a reducing agent and subjected to electrophoretic analysis at room temperature. Enzyme activity was visualized as a negative staining area with Coomassie Brilliant Blue R-250.
The expression construct for FLAG epitope ([…]-tagged MT1-MMP (MT1-F) described in Itoh, Y. et al., J. Biol. Chem., 274: 34260-34266, 1999 was used as a template to generate cDNA for MT1Cat-F (A Ile^318-Gly^535) by the PCR extension method of Ho et al., (Ho, S. N. et al., Gene, 77: 51-59, 1989). The cDNA was subcloned into pSG5 (Stratagene, CA, USA). The PCR-generated fragments were confirmed by DNA sequencing. COS1 cells were transfected with the expression vector for MT1-MMP mutant; MT1-F or MT1Cat-F, or a vector alone (Mock). Expression vectors for each protein were transfected using FuGENE6™ (Roche Molecular Biochemicals) according to the manufacturer's instructions. COS1 cells were seeded in 6-well plates at 1.5×10^5/well at 16 hrs before the transfection was performed. The COS1 cells were maintained in a HAM F-12 medium or DMEM containing 10% fetal bovine serum in a humidified incubator at 37° C. At 48 hrs after the transfection, the cells were collected for use in the experiments. The cells were incubated in the presence of purified proMMP-2 in a serum-free medium (0.25 μg/ml) at 37° C. for 18 hrs. Cell lysates were tested for the expression of the mutants, while culture supernatants were tested for the activation of proMMP-2.
To investigate roles of dimer formation upon the activation of proMMP-2, MT1-F was introduced into COS1 cells together with MT1PEX-F. The co-introduced cells were reacted with exogenously added proMMP-2. Thus, COS1 cells were co-transfected with the MT1-F and MT1PEX-F at indicated DNA amount ratios. Next, purified proMMP-2 (0.25 μg/ml) in a serum-free medium was reacted with the resulting cells at 37° C. for 18 hrs. MMP-2 in the culture supernatant was analyzed by gelatin zymography, and the cell lysates were subjected to Western blotting analysis using a monoclonal anti-FLAG M2 antibody.
(§1) Next, to determine if MT1PEX-F affects the catalytic activity of MT1-MMP on the cell surface or not, tests for gelatin degrading activity and binding capacity to TIMP-2 were conducted using cells transfected in the same incubator. As shown in FIGS. 12 through 14, CHO-K1 cells were transfected with an expression vector for MT1-F, MT1-F/MT1PEX-F or MT1Cat-F, or a vector alone (Mock). The cells were then treated with trypsin, and separately seeded to: DQ™ gelatin-coated cover slips for testing the proteolytic activity (FIG. 13); and 24-well plates for TIMP-2 binding assay (FIG. 12) and for the activation of proMMP-2 (FIG. 14). Transfected cells on the DQ™ gelatin-coated cover slip as shown in FIG. 13 were incubated in a medium at 37° C. for 18 hrs, and the generated fluorescence was analyzed using confocal microscopy. Transfected cells on the 24-well plate as shown in FIG. 12 were incubated with 25 nM ^125I-labeled TIMP-2 in the presence or absence of BB-94 (50 μM) at 0° C. for 1 hr. MT1-MMP specific binding was calculated by subtracting the datum obtained in the presence of BB-94 (50 μM) from each datum derived from the corresponding experiments. […] DQ™ gelatin is a fluorescence-quenched gelatin, which fluoresces upon proteolytic cleavage. […]

MT1-MMP [3] = assay: In situ gelatin degrading assay (DQ gelatin or Alexa488-conjugated gelatin); type: cell-based, human; settings: DQ gelatin; CHO-K1 (FIG. 13) or COS1 cells (FIG. 22)
Procedure: Two different in situ gelatin degrading assays were performed. One used DQ™ gelatin (Molecular Probes, Inc., OR, USA). DQ gelatin is a fluorescence-quenched gelatin substrate, and will fluoresce upon proteolytic cleavage. Glass cover slips were coated with 5% DQ™ gelatin in a 10 mg/ml unlabeled gelatin solution, and dried. Transfected cells were cultured on the cover slip in a humidified chamber for 16 hrs. The cells were then fixed with 3% para-formaldehyde and the degraded areas were visualized as those showing fluorescence.
The other assay used Alexa488-conjugated gelatin made with an Alexa488-labeling kit (Molecular Probes). The bottom surfaces of 4-well chamber slides (Nunc) were coated with Alexa488-conjugated gelatin according to the method of Yana, I. and Weiss, S. J., Mol. Biol. Cell, 11, 2387-2401, 2000. Transfected COS1 cells were cultured in the chamber slides for 16 hrs in a humidified culture incubator. The cells were then fixed with 3% para-formaldehyde in PBS, and the degraded area was analyzed under a fluorescence microscope. The degraded area was visualized as a dark, non-fluorescent area. Fluorescence images were analyzed using confocal microscopy (BioRad).
as §1, with “experiments. Identically transfected cells on the 24-well plate as shown in FIG. 14 were subjected to the reaction with purified proMMP-2 in a serum-free medium at 37° C. for 18 hrs. The cells and culture supernatants were respectively subjected to Western blotting analysis using a monoclonal anti-FLAG M2 antibody, and gelatin zymography analysis.” for “experiments.”

proMMP-2 = target: T1, proMMP-2 (Homo sapiens, UniProt P08253); assay: ProMMP-2 binding assay on transfected COS1 cells; type: cell-based; settings: COS1 cells expressing the mutant (FIG. 21)
T1 construct: made in house; host or cells: HighFive insect cells infected with recombinant baculovirus; purified from culture supernatant
T1 sequence (P08253 30-660 limits assumed): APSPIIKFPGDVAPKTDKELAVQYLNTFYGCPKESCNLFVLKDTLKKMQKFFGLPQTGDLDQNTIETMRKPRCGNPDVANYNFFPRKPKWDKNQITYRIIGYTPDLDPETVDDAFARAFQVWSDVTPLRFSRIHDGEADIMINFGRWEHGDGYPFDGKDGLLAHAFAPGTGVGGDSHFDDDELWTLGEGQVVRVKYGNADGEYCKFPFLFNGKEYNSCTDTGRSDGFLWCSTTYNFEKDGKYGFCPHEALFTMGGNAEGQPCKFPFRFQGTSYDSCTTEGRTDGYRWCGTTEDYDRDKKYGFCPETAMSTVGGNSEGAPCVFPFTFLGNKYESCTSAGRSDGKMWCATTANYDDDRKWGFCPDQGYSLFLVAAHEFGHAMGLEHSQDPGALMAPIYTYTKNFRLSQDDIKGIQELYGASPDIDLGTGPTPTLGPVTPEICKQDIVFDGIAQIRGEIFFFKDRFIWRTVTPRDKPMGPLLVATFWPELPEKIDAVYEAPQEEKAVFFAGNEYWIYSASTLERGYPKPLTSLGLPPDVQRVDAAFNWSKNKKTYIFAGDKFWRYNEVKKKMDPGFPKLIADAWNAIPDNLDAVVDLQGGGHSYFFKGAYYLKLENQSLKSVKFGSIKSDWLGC
Procedure: Transfected COS1 cells were cultured in a 24-well plate (0.2×10^4/well). Forty-eight hours after transfection, the cells were washed three times with serum-free DMEM, and incubated with purified proMMP-2 (2 μg/ml) in the serum-free DMEM at 25° C. for 1 hr. The cells were then washed three times with serum-free DMEM containing 5% dimethyl sulfoxide (DMSO) to remove free proMMP-2, and lysed in 50 μl of a non-reducing SDS-loading buffer. MMP-2 bound to the cells was analyzed by gelatin zymography.

Row | Substance | tyrosine phosphorylation of the chimera (Anti-PY) [1] | activation of proMMP-2 by cells expressing the mutant (MT1-MMP [2]) | gelatin degrading (proteolytic) activity of cells expressing the mutant (MT1-MMP [3]) | ternary complex formation with TIMP-2/proMMP-2 on the cell surface (proMMP-2)
1 | MT1PEX-F/NGFR: Chimera of the ectodomain of MT1PEX-F with the transmembrane/cytoplasmic domain of NGFR | strongly phosphorylated |  |  | 
2 | MT1-MT4PEX: MT1-MMP in which Cys319 to Cys508 is replaced with Cys336 to Cys527 of mouse MT4-MMP |  | did not activate proMMP-2 | showed proteolytic activity | can form a ternary complex
3 | MT1Cat-F/NGFR: Chimera of the ectodomain of MT1Cat-F with the transmembrane/cytoplasmic domain of NGFR | extremely low |  |  | 
4 | MT1-F/NGFR: Chimera of the ectodomain of MT1-F with the transmembrane/cytoplasmic domain of NGFR | phosphorylated |  |  | 
5 | MT4PEX-F/NGFR: Chimera of the ectodomain of MT4PEX-F with the transmembrane/cytoplasmic domain of NGFR | extremely low |  |  | 
